Results taken from patent US8912121B2, “Herbicidal compositions comprising 4-amino-3-chloro-5-fluoro-6-(4-chloro-2-fluoro-3-methoxyphenyl)pyridine-2-carboxylic acid or a derivative thereof and certain PS II inhibitors” (Dow Agrosciences LLC, priority 2012, dated 2014).

Assays:
[1] = system: AMARE (Amaranthus retroflexus, redroot pigweed); assay: Postemergence herbicidal activity of mixtures in cereal crops, greenhouse; format: in vivo, Amaranthus retroflexus L.
Experimental: (§1) Seeds of the desired test plant species were planted in Sun Gro MetroMix® 306 planting mixture, which typically has a pH of 6.0 to 6.8 and an organic matter content of about 30 percent, in plastic pots with a surface area of 103.2 square centimeters (cm^2). When required to ensure good germination and healthy plants, a fungicide treatment and/or other chemical or physical treatment was applied. The plants were grown for 7-36 days in a greenhouse with an approximate 14 hour photoperiod which was maintained at about 18° C. during the day and about 17° C. during the night. Nutrients and water were added on a regular basis and supplemental lighting was provided with overhead metal halide 1000-Watt lamps as necessary. The plants were employed for testing when they reached the second or third true leaf stage.
(§2) Treatments consisted of the benzyl ester of 4-amino-3-chloro-5-fluoro-6-(4-chloro-2-fluoro-3-methoxy-phenyl)pyridine-2-carboxylic acid (Compound A), formulated as an SC, a second cereal herbicide alone and then both in combination.
(§3) Other herbicidal components were applied on an active ingredient basis and included PSII-inhibiting herbicides.
(§4) Measured aliquots of benzyl ester of 4-amino-3-chloro-5-fluoro-6-(4-chloro-2-fluoro-3-methoxy-phenyl)pyridine-2-carboxylic acid (Compound A) were placed in 25 milliliter (mL) glass vials and diluted in a volume of 1.25% (v/v) Agri-Dex® crop oil concentrate to obtain stock solutions. Compound requirements are based upon a 12 mL application volume at a rate of 187 liters per hectare (L/ha). Spray solutions of the second cereal herbicide and experimental compound mixtures were prepared by adding the stock solutions to the appropriate amount of dilution solution to form 12 mL spray solution with active ingredients in two- and three-way combinations. Formulated compounds were applied to the plant material with an overhead Mandel track sprayer equipped with an 8002E nozzle calibrated to deliver 187 L/ha over an application area of 0.503 square meters (m^2) at a spray height of 18 inches (46 cm) above average plant canopy. Control plants were sprayed in the same manner with the solvent blank.
(§5) The treated plants and control plants were placed in a greenhouse as described above and watered by sub-irrigation to prevent wash-off of the test compounds. After 20-22 days, the condition of the test plants as compared with that of the control plants was determined visually and scored on a scale of 0 to 100 percent where 0 corresponds to no injury and 100 corresponds to complete kill.
(§6) Colby's equation was used to determine the herbicidal effects expected from the mixtures (Colby, S. R. 1967. Calculation of the synergistic and antagonistic response of herbicide combinations. Weeds 15:20-22). […]

[2] = system: GALAP (Galium aparine, catchweed bedstraw); assay: as above; format: in vivo, Galium aparine L.
Experimental: as §1, §2, §3, §4, §5
(§7) Colby's equation was used to determine the herbicidal effects expected from the mixtures (Colby, S. R. 1967. Calculation of the synergistic and antagonistic response of herbicide combinations. Weeds 15:20-22).
(§8) The following equation was used to calculate the expected activity of mixtures containing two active ingredients, A and B: Expected=A+B−(A×B/100)

[3] = system: LAMPU (Lamium purpureum, purple deadnettle); assay: as above; format: in vivo, Lamium purpureum L.
Experimental: as §1, §2, §3, §4, §5, §7, §8

[4] = system: SINAR (Sinapis arvensis, wild mustard); assay: as above; format: in vivo, Sinapis arvensis L.
Experimental: as §1, §2, §3, §4, §5, §7, §8

[5] = system: VERPE (Veronica persica, Persian speedwell); assay: as above; format: in vivo, Veronica persica Poir.
Experimental: as §1, §2, §3, §4, §5, §7, §8

[6] = system: CHEAL (Chenopodium album, common lambsquarters); assay: as above; format: in vivo, Chenopodium album L.
Experimental: as §1, §2, §3, §4, §5, §6

[7] = system: KCHSC (Kochia scoparia, kochia); assay: as above; format: in vivo, Kochia scoparia (L.) Schrad.
Experimental: as §1, §2, §3, §4, §5, §7, §8

[8] = system: SASKR (Salsola tragus, Russian thistle); assay: as above; format: in vivo, Salsola tragus L.
Experimental: as §1, §2, §3, §4, §5, §7, §8

[9] = system: SETFA (Setaria faberi, giant foxtail); assay: Pre-emergence soil-applied mixtures, greenhouse; format: in vivo, Setaria faberi Herrm.; conditions: 27 DAA
Text: (§9) Seeds or nutlets of the desired test plant species were planted in a soil matrix prepared by mixing a loam soil (32 percent silt, 23 percent clay, and 45 percent sand, with a pH of about 6.5 and an organic matter content of about 1.9 percent) and calcareous grit in an 80 to 20 ratio. The soil matrix was contained in plastic pots with a volume of 1 quart and a surface area of 83.6 square centimeters (cm^2).
(§10) Treatments consisted of the benzyl ester of 4-amino-3-chloro-5-fluoro-6-(4-chloro-2-fluoro-3-methoxy-phenyl)pyridine-2-carboxylic acid (compound A) formulated as an SC (suspension concentrate) and various herbicidal components alone and in combination. Forms of compound A were applied on an acid equivalent basis.
(§11) Other herbicidal components were applied on an acid equivalent or active ingredient basis and included the PSII-inhibiting herbicides, atrazine formulated as Atrazine® 90WDG, metribuzin formulated as Metribuzin 75DF, simazine formulated as Princep Caliber 90, tebuthiuron formulated as Spike 80DF, cyanazine (technical grade material), hexazinone (technical grade material), linuron (technical grade material), terbuthylazine (technical grade material), and diuron formulated as Diuron 4L.
(§12) Treatment requirements were calculated based upon the rates being tested, the concentration of active ingredient or acid equivalent in the formulation, and a 12 mL application volume at a rate of 187 L/ha.
(§13) For treatments comprised of formulated compounds, measured amounts of compounds were placed individually in 25 mL glass vials and diluted in a volume of 1.25% (v/v) Agri-Dex® crop oil concentrate (COC) to obtain 12× stock solutions. […] Application solutions were prepared by adding an appropriate amount of each stock solution (e.g., 1 mL) and diluted to the appropriate final concentrations with the addition of 10 mL of an aqueous mixture of 1.25% (v/v) COC so that the final spray solutions contained 1.25% (v/v) COC.
(§14) For treatments comprised of technical compounds, weighed amounts can be placed individually in 25 mL glass vials and dissolved in a volume of 97:3 (v/v) acetone/DMSO to obtain 12× stock solutions. […] Application solutions can be prepared by adding an appropriate amount of each stock solution (e.g., 1 mL) and diluted to the appropriate final concentrations with the addition of 10 mL of an aqueous mixture of 1.5% (v/v) COC so that the final spray solutions contain 1.25% (v/v) COC. When technical materials are used, the concentrated stock solutions can be added to the spray solutions so that the final acetone and DMSO concentrations of the application solutions are 16.2% and 0.5%, respectively.
(§15) For treatments comprised of formulated and technical compounds, weighed amounts of the technical materials can be placed individually in 25 mL glass vials and dissolved in a volume of 97:3 (v/v) acetone/DMSO to obtain 12× stock solutions, and measured amounts of the formulated compounds can be placed individually in 25 mL glass vials and diluted in a volume of 1.5% (v/v) COC or water to obtain 12× stock solutions. […] Application solutions can be prepared by adding an appropriate amount of each stock solution (e.g., 1 mL) and diluted to the appropriate final concentrations with the addition of an appropriate amount of an aqueous mixture of 1.5% (v/v) COC so that the final spray solutions contain 1.25% (v/v) COC. As required, additional water and/or 97:3 (v/v) acetone/DMSO can be added to individual application solutions so that the final acetone and DMSO concentrations of the application solutions being compared are 8.1% and 0.25%, respectively.
(§16) All stock solutions and applications solutions were visually inspected for compound compatibility prior to application. Spray solutions were applied to the soil with an overhead Mandel track sprayer equipped with a 8002E nozzles calibrated to deliver 187 L/ha over an application area of 0.503 m^2 at a spray height of 18 inches (46 cm) above average pot height. […]

[10] = system: XANST (Xanthium strumarium, common cocklebur); assay: Pre-emergence soil-applied mixtures, greenhouse; format: in vivo, Xanthium strumarium L.; conditions: 29 DAA
Text: as §9, §10, §11, §12, §13, §14, §15, §16

[11] = system: IPOHE (Ipomoea hederacea, ivyleaf morningglory); assay: Pre-emergence soil-applied mixtures, greenhouse; format: in vivo, Ipomoea hederacea (L.) Jacq.
Text: as §9, §10, §11, §12, §13
For treatments comprised of technical compounds, weighed amounts can be placed individually in 25 mL glass vials and dissolved in a volume of 97:3 (v/v) acetone/DMSO to obtain 12× stock solutions. […]
For treatments comprised of formulated and technical compounds, weighed amounts of the technical materials can be placed individually in 25 mL glass vials and dissolved in a volume of 97:3 (v/v) acetone/DMSO to obtain 12× stock solutions, and measured amounts of the formulated compounds can be placed individually in 25 mL glass vials and diluted in a volume of 1.5% (v/v) COC or water to obtain 12× stock solutions. […]

CC(C)c1ccc(NC(=O)N(C)C)cc1 [Isoproturon, N,N-dimethyl-N′-[4-(1-methylethyl)phenyl]urea, reference compound] was tested, and the “Visual Weed Control (%) - 21 DAA AMARE Obs” value ([1]; Isoproturon 375 g ai/ha) was 3%, the “Visual Weed Control (%) - 21 DAA AMARE Obs” value ([1]; Isoproturon 750 g ai/ha) was 10% and the “Visual Weed Control (%) - 21 DAA GALAP Obs” value ([2]; Isoproturon 375 g ai/ha) was 5%. The “Visual Weed Control (%) - 21 DAA GALAP Obs” value ([2]; Isoproturon 750 g ai/ha) was 5%, the “Visual Weed Control (%) - 21 DAA GALAP Obs” value ([2]; Isoproturon 1500 g ai/ha) was 27% and the “Visual Weed Control (%)-21 DAA LAMPU Obs” value ([3]; Isoproturon 375 g ai/ha) was 3%. The “Visual Weed Control (%)-21 DAA LAMPU Obs” value ([3]; Isoproturon 750 g ai/ha) was 3%, the “Visual Weed Control (%)-21 DAA LAMPU Obs” value ([3]; Isoproturon 1500 g ai/ha) was 13% and the “Visual Weed Control (%)-21 DAA SINAR Obs” value ([4]; Isoproturon 375 g ai/ha) was 13%. For the same molecule, the “Visual Weed Control (%)-21 DAA SINAR Obs” value ([4]; Isoproturon 750 g ai/ha) was 40%, the “Visual Weed Control (%) - 21 DAA VERPE Obs” value ([5]; Isoproturon 375 g ai/ha) was 8% and the “Visual Weed Control (%) - 21 DAA VERPE Obs” value ([5]; Isoproturon 750 g ai/ha) was 10%. For the same molecule, the “Visual Weed Control (%) - 21 DAA VERPE Obs” value ([5]; Isoproturon 1500 g ai/ha) was 13%.
For CSc1nnc(C(C)(C)C)c(=O)n1N [Metribuzin, 4-amino-6-(1,1-dimethylethyl)-3-(methylthio)-1,2,4-triazin-5(4H)-one, reference compound], the “Visual Weed Control (%)-21 DAA CHEAL Obs” value ([6]; Metribuzin 25 g ai/ha) was 0%, the “Visual Weed Control (%)-21 DAA CHEAL Obs” value ([6]; Metribuzin 50 g ai/ha) was 55% and the “Visual Weed Control (%)-21 DAA KCHSC Obs” value ([7]; Metribuzin 25 g ai/ha) was 0%. For the same molecule, the “Visual Weed Control (%)-21 DAA KCHSC Obs” value ([7]; Metribuzin 50 g ai/ha) was 8%, the “Visual Weed Control (%)-21 DAA KCHSC Obs” value ([7]; Metribuzin 100 g ai/ha) was 88% and the “Visual Weed Control (%)-21 DAA LAMPU Obs” value ([3]; Metribuzin 25 g ai/ha) was 3%. The “Visual Weed Control (%)-21 DAA LAMPU Obs” value ([3]; Metribuzin 50 g ai/ha) was 15%, the “Visual Weed Control (%)-21 DAA LAMPU Obs” value ([3]; Metribuzin 100 g ai/ha) was 23% and the “Visual Weed Control (%)-21 DAA SASKR Obs” value ([8]; Metribuzin 25 g ai/ha) was 8%. For the same molecule, the “Visual Weed Control (%)-21 DAA SASKR Obs” value ([8]; Metribuzin 50 g ai/ha) was 8%, the “Visual Weed Control (%)-21 DAA SASKR Obs” value ([8]; Metribuzin 100 g ai/ha) was 67% and the “Visual Weed Control (%)-21 DAA SINAR Obs” value ([4]; Metribuzin 25 g ai/ha) was 8%. The “Visual Weed Control (%)-21 DAA SINAR Obs” value ([4]; Metribuzin 50 g ai/ha) was 15%, the “Visual Weed Control (%) Obs” value ([9]; 210 g ai/ha) was 43% and the “Visual Weed Control (%) Obs” value ([9]; 420 g ai/ha) was 83%.
CNC(=O)N(C)c1nnc(C(C)(C)C)s1 [Tebuthiuron, N-[5-(1,1-dimethylethyl)-1,3,4-thiadiazol-2-yl]-N,N′-dimethylurea, reference compound] was tested, and the “Visual Weed Control (%) - 29 DAA XANST Obs” value ([10]; Tebuthiuron 210 g ai/ha) was 40%, the “Visual Weed Control (%) - 29 DAA XANST Obs” value ([10]; Tebuthiuron 3360 g ai/ha) was 95% and the “Visual Weed Control (%) - 33 DAA IPOHE Obs” value ([11]; Tebuthiuron 420 g ai/ha) was 87%. The “Visual Weed Control (%) - 33 DAA IPOHE Obs” value ([11]; Tebuthiuron 840 g ai/ha) was 90%.
